Measured values from patent US20080214563A1, “Benzimidazole Thiophene Compounds As Plk Modulators” (priority 2005, published 2008).

Key:
HCT116 = assay: Methylene Blue Cell Growth Inhibition Assay, HCT116; type: cell-based; conditions: Homo sapiens, HCT-116, 72 h, read-out: MEB HCT116 IC50
Procedure: (§1) Normal human foreskin fibroblasts (HFF), human colon (HCT116, RKO), lung (H460, A549) and breast (MCF7) tumor cell lines were cultured in high glucose DMEM (Life Technologies) containing 10% fetal bovine serum (FBS) at 37° C. in a humidified 5% CO2, 95% air incubator. Cells were harvested using trypsin/EDTA, counted using a haemocytometer, and plated in 100 μL of culture media per well, at the following densities, in a 96-well tissue culture plate (Falcon 3075): HFF 5,000 cells/well, HCT116 3,000 cells/well, RKO 2,500 cells/well, H460 2,500 cells/well, A549 5,000 cells/well, MCF7 4,000 cells/well. The next day, compounds were diluted in low glucose DMEM containing 100 μg/mL gentamicin, at twice the final required concentration, from 10 mM stock solutions in DMSO. 100 μL/well of these dilutions were added to the 100 μL of media currently in the assay plates. Medium containing 0.6% DMSO was added to control wells. The final concentration of DMSO in all wells was 0.3%. Cells were incubated at 37° C., 5% CO2 for 72 h. Medium was removed by aspiration. Cell biomass was estimated by staining cells with 80 μL per well methylene blue (Sigma M9140, 0.5% in 50:50 ethanol:water), and incubation at room temperature for 30-60 min. Stain was removed by aspiration and the plates rinsed by immersion in water, then air-dried. To release stain from the cells, 100 μL of solubilization solution was added (1% N-lauroyl sarcosine, Sodium salt, Sigma L5125, in PBS), and plates were shaken gently for about 30 min. Optical density at 620 nm was measured on a microplate reader. Percent inhibition of cell growth was calculated relative to vehicle treated control wells. Concentration of compound that inhibits 50% of cell growth (IC50) was interpolated using nonlinear regression (Levenberg-Marquardt) and the equation, y=Vmax*(1−(x/(K+x)))+Y2, where “K” was equal to the IC50.

H460 = assay: Methylene Blue Cell Growth Inhibition Assay, H460; type: cell-based; conditions: Homo sapiens, NCI-H460, 72 h, read-out: MEB H460 IC50
Procedure: as §1

A549 = assay: Methylene Blue Cell Growth Inhibition Assay, A549; type: cell-based; conditions: Homo sapiens, 72 h, read-out: MEB A549 IC50
Procedure: as §1

RKO = assay: Methylene Blue Cell Growth Inhibition Assay, RKO; type: cell-based; conditions: Homo sapiens, 72 h, read-out: MEB RKO IC50
Procedure: as §1

MX-1 = assay: Methylene Blue Cell Growth Inhibition Assay, MX-1; type: cell-based; conditions: Homo sapiens, MX1, 72 h, read-out: MEB MX-1 IC50
[1] = test system: Normal human foreskin fibroblasts (HFF); assay: Methylene Blue Cell Growth Inhibition Assay, HFF; type: cell-based; conditions: Fibroblast, 72 h, read-out: MEB HFF IC50
Procedure: as §1

HCT-116 = assay: Cell-Titer Glo Cell Growth Inhibition Assay, HCT116; type: cell-based; conditions: Homo sapiens, CellTiter-Glo, 72 h, read-out: CTG HCT116 IC50
Procedure: A549-L (human lung), BT474 (human breast), Colo 205 (human colon), H1299 (human lung), Hela (human cervix), HCT-116 (human colon), HN5 (human head and neck), HT29 (human colon), LNCap (human prostate), MCF7 (human breast), MDA-MB468 (human breast), MX-1 (human breast), RPMI 8226 (human peripheral blood), SKOV3 (human ovary) and P388 (murine leukemia) cell lines were cultured in RPMI1640 containing 10% fetal bovine serum at 37° C. in a 5% CO2 incubator. Cell lines were split into T75 flasks (Falcon #353136) two to three days prior to assay set up at density which yields approximately 70-80% confluency at time of harvest for assay. Cells were harvested using 0.25% trypsin with EDTA (Glibco/Invitrogen #25200-056), Cell counts were performed on cell suspensions using Trypan Blue exclusion staining, cells were then plated in 105 uL of culture media per well at the following densities in 96 well Costar #3916 black flat bottom plates: All human cell lines were plated at 500 cells/well. P388 were plated at 250 cells/well. All plates were placed at 5% CO2 37° C. overnight and then test compounds were added the following day. One plate of each cell type is treated with CellTiter-Glo (Promega #G7573) for a day 0 proliferation measurement and read as described below. The test compounds are prepared in clear U bottom polypropylene 96 well plates (Falcon #35-1190 with consecutive two fold dilutions. 9 uL of these dilutions was added into each well of the cell plates. The final concentration of DMSO in all wells is 0.15%. Cells were incubated at 37° C., 5% CO2 for 72 h. Following 72 h of incubation with compounds each plate was developed and read. CellTiter-Glo reagent was added to assay plates using a volume equivalent to the cell culture volume in the wells. Plates were shaken for approximately two minutes and incubated at room temperature for approximately 15 min and the chemiluminescent signal is read on the Victor V or Envison 2100 reader. […] Concentration of compound that inhibited 50% of cell growth (IC50) was analysis by 4 or 6 parameter fit of data using XLfit, value of no cell addition was subtracted from all samples for background.

[2] = Intravenous pharmacokinetics in CD-1 mouse; type: in vivo; conditions: plasma, iv bolus, male CD-1 mouse, dose 1.9-7.4 mg/kg per compound (Table 3)
Procedure: Preliminary investigation of the intravenous pharmacokinetics of compounds of invention were carried out in fed conscious CD-1 mouse. Compounds were formulated as 1-10 mg/kg, 5 mL/kg, 1-2 mg/mL solution (Table 3). Twenty one male mice (n=3 mice per time point) (˜30 g) received dose solution by bolus injection in the tail vein. The formulation for iv were either 20% beta cyclodextrin in saline pH 3.5-6 or PEG400:ethanol:saline (50:15:35 v/v). Blood samples (˜0.4 mL) were collected terminally by cardiac puncture following anesthetization in a CO2 chamber at 2, 15, 30, 60 min, 2, 4, and 6 h following iv administration. Blood samples were collected into tubes containing heparin and placed on crushed ice promptly after collection. Plasma was collected by centrifugation, frozen and stored at about −80° C. prior to analysis. Blood or plasma concentrations were determined by LC/MS/MS equipped with an electrospray ion source and using calibration curves for the appropriate matrix. The lower level of quantitation (LLQ) was 10 ng/mL. Blood or plasma concentration-time data were analyzed by non-compartmental methods using the computer program WinNonlin Professional (version 4.1). Area under the blood or plasma concentration-time curve (AUC) was calculated using the linear trapezoidal rule for each incremental trapezoid up to Cmax, and the log trapezoidal rule for each trapezoid thereafter. The terminal elimination rate constant (λz) was derived from the log-linear disposition phase of the concentration-time curve using least-squares regression analysis with visual inspection of the data to determine the appropriate number of terminal data points for regression analysis.
Following iv administration, the total body clearance (CL) was estimated. CL was calculated by dividing the dose by AUC(0−t). The clearance values were assigned as follows. Low <30 mL/min/kg, moderate 30-70 mL/min/kg, high >70 mL/min/kg. The assignment was based on hepatic blood flow i.e. hepatic blood flow of 0-30% low, 30-70% moderate and 70-100% high. The hepatic blood flow in mouse is ˜100 mL/min/kg.

MCF7 = assay: Methylene Blue Cell Growth Inhibition Assay, MCF7; type: cell-based; conditions: Homo sapiens, 72 h, read-out: MEB MCF7 IC50
Procedure: as §1

PLK1 kinase domain = target: T1, PLK1 kinase domain (Homo sapiens, UniProt P53350); assay: Assay for Inhibition of PLK1 (33P SPA kinase assay); type: biochemical; conditions: 2 nM PLK1 kinase domain, 1 μM ATP; read-out: PLK1 pIC50 (converted)
T1 construct: made in house; host or cells: baculovirus infected T. ni cells
T1 sequence (P53350 21-346): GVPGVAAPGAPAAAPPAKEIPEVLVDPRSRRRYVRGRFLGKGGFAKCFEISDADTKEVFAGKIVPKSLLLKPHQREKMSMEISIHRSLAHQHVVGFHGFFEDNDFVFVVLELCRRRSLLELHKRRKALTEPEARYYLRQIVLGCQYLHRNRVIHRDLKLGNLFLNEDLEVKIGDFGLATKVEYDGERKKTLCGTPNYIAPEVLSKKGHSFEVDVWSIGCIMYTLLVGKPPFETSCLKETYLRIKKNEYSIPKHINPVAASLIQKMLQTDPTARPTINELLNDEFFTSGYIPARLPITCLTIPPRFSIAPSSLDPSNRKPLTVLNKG
Procedure: All procedures were performed at 4° C. Cells were lysed in 50 mM HEPES, 200 mM NaCl, 50 mM imidazole, 5% glycerol; pH 7.5. The homogenate was centrifuged at 14K rpm in a SLA-1500 rotor for 1 h and the supernatant filtered through a 1.2 micron filter. The supernatant was loaded onto a Nickel chelating Sepharose (Amersham Pharmacia) column and washed with lysis buffer. Protein was eluted using 20%, 30% and 100% buffer B steps where buffer B is 50 mM HEPES, 200 mM NaCl, 300 mM imidazole, 5% glycerol; pH 7.5. Fractions containing PLK were determined by SDS-PAGE. Fractions containing PLK were diluted five-fold with 50 mM HEPES, 1 mM DTT, 5% glycerol; pH 7.5, then loaded on an SP Sepharose (Amersham Pharmacia) column. After washing the column with 50 mM HEPES, 1 mM DTT, 5% glycerol; pH 7.5, PLK was step eluted with 50 mM HEPES, 1 mM DTT, 500 mM NaCl; 5% glycerol; pH 7.5. PLK was concentrated using a 10 kDa molecular weight cutoff membrane and then loaded onto a Superdex 200 gel filtration (Amersham Pharmacia) column equilibrated in 25 mM HEPES, 1 mM DTT, 500 mM NaCl, 5% glycerol; pH 7.5. Fractions containing PLK were determined by SDS-PAGE. PLK was pooled, aliquoted and stored at −80° C. Samples were quality controlled using mass spectrometry, N-terminal sequencing and amino acid analysis.
B. Enzyme activity +/− inhibitors was determined as follows:
All measurements were obtained under conditions where signal production increased linearly with time and enzyme. Test compounds were added to white 384-well assay plates (0.1 μL for 10 μL and some 20 μl assays, 1 μL for some 20 μL assays) at variable known concentrations in 100% DMSO. DMSO (1-5% final, as appropriate) and EDTA (65 mM in reaction) were used as controls.
Reaction Mix (10 or 20 μL) was quickly added to each well immediately following addition of enzyme via automated liquid handlers and incubated 1-1.5 h at 22° C. The 20 μL enzymatic reactions were stopped with 50 μL of stop mix (50 mM EDTA, 4.0 mg/mL Streptavidin SPA beads in Standard Dulbecco's PBS (without Mg^2+ and Ca^2+), 50 μM ATP) per well. The 10 μL reactions were stopped with 10 μL of stop mix (50 mM EDTA, 3.0 mg/mL Streptavidin-coupled SPA Imaging Beads (“LeadSeeker”) in Standard Dulbecco's PBS (without Mg^2+ and Ca^2+), 50 μM ATP) per well. Plates were sealed with clear plastic seals, spun at 500×g for 1 min or settled overnight, and counted in Packard TopCount for 30 seconds/well (regular SPA) or imaged using a Viewlux imager (LeadSeeker SPA). Signal above background (EDTA controls) was converted to percent inhibition relative to that obtained in control (DMSO-only) wells.

SMILES	IC50 (HCT116) [nM]	IC50 (H460) [nM]	IC50 (A549) [nM]	IC50 (HCT-116) [nM]	AUC(0-t) [2] [ng·h/mL]	clearance ([2]; read-out: Plasma CL) [mL/min/kg]	IC50 (MCF7) [nM]	IC50 (PLK1 kinase domain) [nM]	IC50 (RKO) [nM]	IC50 (MX-1) [nM]	IC50 [1] [nM]
COc1cc2ncn(-c3cc(OC(C)c4ccccc4Cl)c(C(N)=O)s3)c2cc1OC (stereo not drawn) [PU4870 Ex 126, reference compound]	< 100	< 100	< 100	–	–	–	> 1000	–	< 100	–	100 to 1000
NC(=O)c1sc(-n2cnc3cc(C(=O)NCCN4CCNC4=O)ccc32)cc1OCc1ccccc1C(F)(F)F [PU4870 Ex 156, reference compound]	> 1000	> 1000	–	–	–	–	> 1000	10 to 1000	> 1000	–	> 1000

More lines, main results first:

IC50 (HCT116) [nM]	IC50 (H460) [nM]	IC50 (A549) [nM]	IC50 (HCT-116) [nM]	AUC(0-t) [2] [ng·h/mL]	clearance ([2]; read-out: Plasma CL) [mL/min/kg]	IC50 (MCF7) [nM]	IC50 (PLK1 kinase domain) [nM]	SMILES	IC50 (RKO) [nM]	IC50 (MX-1) [nM]	IC50 [1] [nM]
< 100	< 100	< 100	< 100	1370	23.1	–	–	C[C@@H](Oc1cc(-n2cnc3cc(-c4cn[nH]c4)ccc32)sc1C(N)=O)c1ccccc1C(F)(F)F [Example 5, 5-[5-(1H-Pyrazol-4-yl)-1H-benzimidazol-1-yl]-3-({(1R)-1-[2-(trifluoromethyl)phenyl]ethyl}oxy)-2-thiophenecarboxamide]	< 100	< 100	100 to 1000
–	< 100	< 100	100 to 1000	–	–	100 to 1000	< 10	COc1cc2ncn(-c3cc(OC(C)c4ccccc4C(F)(F)F)c(C(N)=O)s3)c2cc1OC (stereo not drawn) [PU4870 Ex 127, reference compound]	< 100	–	> 1000
> 1000	> 1000	> 1000	> 1000	–	–	> 1000	10 to 1000	COc1cc2c(cc1OCCCN1CCCC1=O)ncn2-c1cc(OCc2ccccc2C(F)(F)F)c(C(N)=O)s1 [PU4870 Ex 134, reference compound]	> 1000	–	> 1000
